Results on 18 compounds are retold here after article PMC3057096 (Bioorganic & medicinal chemistry, 2010).

Each structure is given as a SMILES string.

One data set has as its system P. falciparum (D6). Type of data set: cell-based. The settings on record: Plasmodium falciparum, D6, read-out: P. falciparum (D6) IC50.
In data set [1] the test system is P. berghei (sensitive strain). The experiment in a line: In vivo blood-schizontocidal antimalarial activity, rodent malaria model. On the set-up: species or system mice. The settings on record: for P. berghei: mice cured: dose of 25 mg/kg.
The next data set concerns P. falciparum (W2). Type of data set: cell-based. The settings on record: Plasmodium falciparum, W2, read-out: P. falciparum (W2) IC50.
The subject of the next data set is Staphylococcus aureus. The experiment in a line: In vitro antibacterial susceptibility testing. Format: cell-based. The settings on record: read-out: S. aureus IC50, 50% growth inhibition.
In data set [2] the test system is methicillin-resistant Staphylococcus aureus ATCC 43300 (MRSA). The experiment in a line: In vitro antibacterial susceptibility testing. Type of data set: cell-based. The settings on record: ATCC43300|MRSA, read-out: MRSA MIC, NA = no activity at highest test concentration of 20 μg/mL.
The conditions of data set [3]: cited from earlier work.
Another data set concerns β-hematin (BH) formation. The data set can be described thus: Inhibition of β-hematin. Type of data set: biochemical. The settings on record: read-out: BH inhibition IC50.
For data set [4] the following is noted: rodents; cited from earlier work.

With `COc1cc(NC(C)CCCNC(=O)N[C@@H](CCCNC(=N)N)C(=O)NCCCC(C)Nc2cc(OC)cc3cccnc23)c2ncccc2c1.Cl` (stereo partly drawn) [Compound 36, N-{4-[(6-methoxyquinolin-8-yl)amino]pentyl}-N^2-({4-[(6-methoxyquinolin-8-yl)-amino]pentyl}carbamoyl)-D-argininamide·3HCl], the IC50 (as a rule, the midpoint of a concentration-inhibition curve) with P. falciparum (D6) is 3.2 µg/mL; in the data set on P. falciparum (W2) it was 1.8 µg/mL. Further, the “P. berghei in vivo activity class” value in data set [1] (50 mg/kg/day × 4, oral) was “Inactive”; in data set [1] (100 mg/kg/day × 4, oral) it was “Curative”.

Turning to `COc1cc(NC(C)CCCNC(=O)N[C@@H](CCCN)C(=O)NCCCC(C)Nc2cc(OC)cc3cccnc23)c2ncccc2c1.Cl` (stereo partly drawn) [Compound 37, N-{4-[(6-methoxyquinolin-8-yl)amino]pentyl}-N^2-({4-[(6-methoxyquinolin-8-yl)-amino]pentyl}carbamoyl)-D-ornithinamide·3HCl], the “P. berghei in vivo activity class” value in data set [1] (100 mg/kg/day × 4, oral) is listed as “Inactive”.

Take `COc1cc(NC(C)CCCNC(=O)N[C@H](CCCCN)C(=O)NCCCC(C)Nc2cc(OC)cc3cccnc23)c2ncccc2c1.Cl` (stereo partly drawn) [Compound 38, N-{4-[(6-methoxyquinolin-8-yl)amino]pentyl}-N^2-({4-[(6-methoxyquinolin-8-yl)-amino]pentyl}carbamoyl)-L-lysinamide·3HCl]: the IC50 with P. falciparum (D6) stood at 3.6 µg/mL.

Regarding `COc1cc(NC(C)CCCNC(=O)N[C@@H](CCCN)C(=O)NCCCC(C)Nc2cc(OC)cc3ccc(C(C)(C)C)nc23)c2nc(C(C)(C)C)ccc2c1.Cl` (stereo partly drawn) [Compound 42, N-{4-[(2-tert-butyl-6-methoxyquinolin-8-yl)amino]pentyl}-N^2-({4-[(2-tert-butyl-6methoxyquinolin-8-yl)amino]pentyl}carbamoyl)-D-ornithinamide·3HCl], the IC50 in the data set with P. falciparum (W2) was 3.2 µg/mL.

For `COc1cc(NC(C)CCCNC(=O)N[C@H](CCCCN)C(=O)NCCCC(C)Nc2cc(OC)cc3ccc(C(C)(C)C)nc23)c2nc(C(C)(C)C)ccc2c1.Cl` (stereo partly drawn) [Compound 43, N-{4-[(2-tert-butyl-6-methoxyquinolin-8-yl)amino]pentyl}-N^2-({4-[(2-tert-butyl-6methoxyquinolin-8-yl)amino]pentyl}carbamoyl)-L-lysinamide·3HCl], the IC50 in the data set with P. falciparum (D6) is 1.6 µg/mL; with Staphylococcus aureus, 1.78 to 2.73 µg/mL. Further, the “P. berghei in vivo activity class” value in data set [1] (100 mg/kg/day × 4, oral) is “Suppressive”.

With `COc1cc(NC(C)CCCNC(=O)CC[C@H](N)C(=O)NCCCC(C)Nc2cc(OC)cc3cccnc23)c2ncccc2c1.Cl` (stereo partly drawn) [Compound 61, N^1,N^5-Bis{4-[(6-methoxyquinolin-8-yl)amino]pentyl}-L-glutamamide·3HCl], the IC50 in the data set with P. falciparum (D6) is 2.7 µg/mL; in the data set with P. falciparum (W2), 2.2 µg/mL. In addition, the “P. berghei in vivo activity class” value was “Suppressive” in data set [1] (10 mg/kg/day × 4, oral); “Curative” in data set [1] (25 mg/kg/day × 4, oral); “Curative” in data set [1] (50 mg/kg/day × 4, oral); “Curative” in data set [1] (100 mg/kg/day × 4, oral). Also, the “P. berghei: mice cured” value in data set [1] is recorded as 100%.

Regarding `COc1cc(NC(C)CCCNC(=O)C[C@H](N)C(=O)NCCCC(C)Nc2cc(OC)cc3ccc(C(C)(C)C)nc23)c2nc(C(C)(C)C)ccc2c1.Cl` (stereo partly drawn) [Compound 62, N^1,N^4-Bis{4-[(2-tert-butyl-6-methoxyquinolin-8-yl)amino]pentyl}-L-aspartamide·3HCl], the “P. berghei in vivo activity class” value in data set [1] (100 mg/kg/day × 4, oral) is reported as “Inactive”. The 50% inhibitory concentration (IC50) with P. falciparum (W2) was found to be 3.2 µg/mL.

For the compound `COc1cc(NC(C)CCCNC(=O)CC[C@H](N)C(=O)NCCCC(C)Nc2cc(OC)cc3ccc(C(C)(C)C)nc23)c2nc(C(C)(C)C)ccc2c1.Cl` (stereo partly drawn) [Compound 63, N^1,N^5-Bis{4-[(2-tert-butyl-6-methoxyquinolin-8-yl)amino]pentyl}-L-glutamamide·3HCl], in data set [1] (100 mg/kg/day × 4, oral), the “P. berghei in vivo activity class” value is reported as “Inactive”.

As for `COc1cc(NC(C)CCCNC(=O)C[C@@H](N)C(=O)NCCCC(C)Nc2cc(OC)cc3cccnc23)c2ncccc2c1.Cl` (stereo partly drawn) [Compound 64, N^1,N^4-Bis{4-[(6-methoxyquinolin-8-yl)amino]pentyl}-D-aspartamide·3HCl], the IC50 with P. falciparum (W2) amounted to 3.6 µg/mL.

For the compound `COc1cc(NC(C)CCCNC(=O)NCCCC(C)Nc2cc(OC)cc3cccnc23)c2ncccc2c1.Cl.Cl` (centres unmarked) [Compound 66, 1,3-Bis{4-[(6-methoxyquinolin-8-yl)amino]pentyl}urea·2HCl], the “P. berghei in vivo activity class” value in data set [1] (100 mg/kg/day × 4, oral) is “Inactive”.

On to `COc1cc(NC(C)CCCNC(=S)NCCCC(C)Nc2cc(OC)cc3cccnc23)c2ncccc2c1.Cl.Cl` (centres unmarked) [Compound 67, 1,3-Bis{4-[(6-methoxyquinolin-8-yl)amino]pentyl}thiourea·2HCl], for which, in data set [2], the MIC was in the range of 5 to 20 µg/mL.

As to `COc1cc(NC(C)CCCNC(=O)NCCCC(C)Nc2cc(OC)cc3ccc(C(C)(C)C)nc23)c2nc(C(C)(C)C)ccc2c1.Cl.Cl` (centres unmarked) [Compound 68, 1,3-Bis{4-[(2-tert-butyl-6-methoxyquinolin-8-yl)amino]pentyl}urea·2HCl], the “P. berghei in vivo activity class” value in data set [1] (100 mg/kg/day × 4, oral) is reported as “Inactive”. Further, in the data set with P. falciparum (W2), the IC50 came out at 3.7 µg/mL.

For `CCCCCOc1c(OC)cc(NC(C)CCCNC(=S)NCCCC(C)Nc2cc(OC)c(OCCCCC)c3c(CC)ccnc23)c2nccc(CC)c12.Cl.Cl` (centres unmarked) [Compound 71, 1,3-Bis{4-[4-ethyl-6-methoxy-5-(pentyloxy)quinolin-8-ylamino]pentyl}-thiourea·2HCl], the MIC in data set [2] lay in the range of 5 to 20 µg/mL.

As for `COc1cc(NC(C)CCCNC(=O)NC(=O)NCCCC(C)Nc2cc(OC)cc3cccnc23)c2ncccc2c1.Cl.Cl` (centres unmarked) [Compound 74, N,N′-Bis{4-[(6-methoxyquinolin-8-yl)amino]pentyl}dicarbonimidic diamide·2HCl], the “P. berghei in vivo activity class” value in data set [1] (100 mg/kg/day × 4, oral) was “Inactive”.

On to `COc1cc(NC(C)CCCNCOC(=O)NCCCC(C)Nc2cc(OC)cc3cccnc23)c2ncccc2c1.Cl.Cl` (centres unmarked) [Compound 76, ({4-[(6-Methoxyquinolin-8-yl)amino]pentyl}amino)methyl{4-[(6-methoxy-quinolin-8-yl)amino]pentyl}carbamate·2HCl], for which the “P. berghei in vivo activity class” value in data set [1] (100 mg/kg/day × 4, oral) was “Suppressive”.

Consider `COc1cc(NC(C)CCCNCCNCCNCCCC(C)Nc2cc(OC)cc3cccnc23)c2ncccc2c1.Cl.Cl` (centres unmarked) [Compound 79, N^1,N^1′-(iminodiethane-2,1-diyl)bis[N^4-(6-methoxyquinolin-8-yl)pentane-1,4-diamine]·2HCl], for which the “P. berghei in vivo activity class” value in data set [1] (10 mg/kg/day × 4, oral) is listed as “Suppressive”; in data set [1] (25 mg/kg/day × 4, oral), “Curative”; in data set [1] (50 mg/kg/day × 4, oral), “Curative”; in data set [1] (100 mg/kg/day × 4, oral) it was “Curative”. In addition, the “P. berghei: mice cured” value in data set [1] is 100%.

Regarding `COc1cc(NC(C)CCCNC(=O)c2cncc(C(=O)NCCCC(C)Nc3cc(OC)cc4ccc(C(C)(C)C)nc34)c2)c2nc(C(C)(C)C)ccc2c1.Cl` (centres unmarked) [Compound 85, N,N′-Bis{4-[(2-tert-butyl-6-methoxyquinolin-8-yl)amino]pentyl}pyridine-3,5-dicarboxamide·3HCl], the IC50 with P. falciparum (D6) is 2.7 µg/mL; in the data set with P. falciparum (W2), 1.8 µg/mL.

On to `COc1cc(NC(C)CCCN)c2ncccc2c1` (centres unmarked) [PQ, primaquine], for which the half life in data set [3] is 4 to 6 h. In the data set on β-hematin (BH) formation, the IC50 is > 1000 µM. The “time at which two major metabolites start appearing in the blood” value in data set [4] was “about 30 min”.
